These results are taken from patent US6107291A, “Azepine or larger medium ring derivatives and methods of use” (Amgen Inc., priority 1998, dated 2000).

The subject of experiment [1] is TNF-α. Particulars: Phase II human trial, rheumatoid arthritis; cited from earlier work.
The target in experiment [2] is Human neutrophil collagenase (HNC) (Homo sapiens, UniProt P22894). The experiment can be described thus: Human Neutrophil Collagenase Assay (fluorogenic peptide substrate). Type of experiment: biochemical.
Sequence of Human neutrophil collagenase (HNC) (P22894 101-467): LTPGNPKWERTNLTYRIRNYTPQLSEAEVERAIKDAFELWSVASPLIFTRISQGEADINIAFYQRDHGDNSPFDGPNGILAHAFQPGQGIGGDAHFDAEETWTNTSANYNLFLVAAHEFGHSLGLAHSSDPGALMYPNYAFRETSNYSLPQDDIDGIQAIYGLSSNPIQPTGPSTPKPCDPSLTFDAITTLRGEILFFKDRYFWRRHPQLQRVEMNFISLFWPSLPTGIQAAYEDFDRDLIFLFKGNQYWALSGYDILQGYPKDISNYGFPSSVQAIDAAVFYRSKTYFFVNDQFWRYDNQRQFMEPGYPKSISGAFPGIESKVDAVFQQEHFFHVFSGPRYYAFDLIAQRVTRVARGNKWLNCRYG
Method: Human neutrophil collagenase (HNC) activity is determined by using fluorogenic peptide substrate Dnp-Pro-b-Cyclohexyl-Ala-Gly-Cys (Me)-His-Ala-Lys-(N-methylanthranilic acid)-NH2. The N-terminus Dnp group and the C-terminus N-methyl-anthranilyl moiety (Nma) are fluorescence self-quenching until the peptide is cleaved at the Gly-Cys(me) bond. The fluorescence from the cleavage products is measured on a Bio-Tek Instrument FL500 fluorescence micro-plate reader (excitation at 360 nm, emission at 460 nm). […] The test compounds (at 100, 33 & 10 mM) are compared for their inhibition of HNC activity on the substrate against the activity of Actinonin and Ki's were determined on selected compounds.
Experiment [3] has as its target Human fibroblast stromelysin (HFS) (Homo sapiens, UniProt P08254). The experiment can be described thus: Human Fibroblast Stromelysin Assay (fluorogenic peptide substrate). Type of experiment: biochemical.
Method: Human fibroblast stromelysin (HFS) activity is determined by using fluorogenic peptide substrate Dnp-Pro-b-Cyclohexyl-Ala-Gly-Cys(Me)-His-Ala-Lys-(N-methylanthranilic acid)-NH2. The N-terminus Dnp group and the C-terminus N-methyl-anthranilyl moiety (Nma) are fluorescence self-quenching until the peptide is cleaved at the Gly-Cys(me) bond. The fluorescence from the cleavage products is measured on a Bio-Tek Instrument FL500 fluorescence micro-plate reader (excitation at 360 nm, emission at 460 nm). […] The test compounds (at 100, 33 & 10 mM) are compared for their inhibition of HFS activity on the substrate against the activity of Actinonin and Ki's were determined on selected compounds.
The subject of experiment [4] is TNF-α. The settings on record: soluble receptors for TNF-α; cited from earlier work.

Sequence of Human fibroblast stromelysin (HFS) (P08254 100-477): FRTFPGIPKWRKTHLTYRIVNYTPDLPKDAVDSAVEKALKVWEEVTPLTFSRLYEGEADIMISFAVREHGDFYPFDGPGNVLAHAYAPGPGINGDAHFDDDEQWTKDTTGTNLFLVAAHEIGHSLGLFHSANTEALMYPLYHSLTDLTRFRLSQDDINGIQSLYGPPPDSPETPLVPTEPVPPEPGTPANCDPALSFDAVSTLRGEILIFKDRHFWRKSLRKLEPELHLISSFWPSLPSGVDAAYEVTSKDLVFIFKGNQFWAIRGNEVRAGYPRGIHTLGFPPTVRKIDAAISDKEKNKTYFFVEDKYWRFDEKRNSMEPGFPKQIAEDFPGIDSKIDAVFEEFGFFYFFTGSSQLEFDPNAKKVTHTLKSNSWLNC

For the molecule “cA2: a monoclonal antibody specific to TNF-α, cA2”, in the experiment with TNF-α [1], the swollen joint count result is “improvement in swollen joint count”.
The term Km denotes the concentration of substrate that gives half-maximal velocity. In the case of “Dnp-Pro-b-Cyclohexyl-Ala-Gly-Cys (Me)-His-Ala-Lys-(N-methylanthranilic acid)-NH2”, the Km in experiment [2] and in experiment [3] was 0.051 µM each time.

B1: TNFR-55: soluble receptors for TNF-α (protein, UniProt P19438 30-211, looked up)
extracellular domain: LVPHLGDREKRDSVCPQGKYIHPQNNSICCTKCHKGTYLYNDCPGPGQDTDCRECESGSFTASENHLRHCLSCSKCRKEMGQVEISSCTVDRDTVCGCRKNQYRHYWSENLFQCFNCSLCLNGTVHLSCQEKQNTVCTCHAGFFLRENECVSCSNCKKSLECTKLCLPQIENVKGTEDSGTT
modifications: extracellular domain
notes: soluble receptors for TNF-α
Consider B1, for which the “efficacy in animal models of TNF-α mediated disease states” value with TNF-α [4] was “demonstrated efficacy in animal models of TNF-α mediated disease states”.
